Laboratory results from publication PMC5489165, “Identification of benzazole compounds that induce HIV-1 transcription” (PLoS ONE, 2017).

Key:
[1] = Protein binding, mouse plasma (ultrafiltration); format: in vitro ADME; details: pH 7.4
Experimental: Binding of test compound to plasma proteins was estimated by incubation of test compounds with mouse or human plasma. Human plasma was obtained from BioreclamationIVT (Westbury, NY). […] After a 15 min incubation at 37°C, triplicate aliquots of the incubation mixtures were transferred to a Millipore Multiscreen Ultracel-10 filter plate (10 kDa molecular mass cut off, EMD Millipore, Billerica, MA). The plate was centrifuged for 60 min at 3000 × g and 37°C. After centrifugation, aliquots of both the ultrafiltrates as well as the incubation mixtures prior to ultrafiltration were analyzed by LC-MS/MS to quantify the concentrations of test compound and reference compounds.

[2] = system: HIV-1 transcription in 24STNLSG cells; experiment: SEAP assay in 24STNLSG cells (latency reactivation); format: cell-based; details: for EC2X, 24STNLSG: concentration for 2-fold increase in SEAP activity; for Activity in 24STNLSG cells (in words): structure-activity
Experimental: SupT1-derived 24STNLSG cells were plated at 100,000 cells/well in black bottom/black walled 96-well plates in 50 μl RPMI-1640 medium (without phenol red) containing 10% FBS. Compound was added in 50 μl of identical medium using three-fold dose-response dilutions, in duplicate. […] TNF-α, a nuclear factor-κB (NF-κB) activator known to induce HIV- expression in cellular models, was used as a positive control. Plates were incubated for 72 h at 37°C, 5% CO2. Plates were then sealed and heated to 65°C for 30 min. Plates were brought to room temperature and 50 μl assay buffer (1 mM MgCl2, 10 mM L-homoarginine, 1 M diethylamine hydrochloride) was added to each well and incubated for 5 min at room temperature. To each well, 50 μl of CSPD Substrate (0.4 mM Ready-to-Use with Sapphire-II Enhancer; Applied Biosystems, Foster City, CA) was added. Plates were incubated for 20 min at room temperature and read on a ViewLux microplate imager (Perkin Elmer, Waltham, MA). Curves were fit by non-linear regression using Prism software (GraphPad, San Diego, CA).

[3] = Cytotoxicity assay in SupT1 cells (ATP, CellTiter-Glo); format: cell-based; details: human, SupT1 cells; ATP quantification; 72 h; read-out: CC50, SupT1
Experimental: SupT1 cells were plated at 100,000 per well in 96-well, white-walled plates with serial dilutions of test compound in a total volume of 100 μl RPMI-1640 medium containing 10% FBS and 0.5% DMSO. PBMCs were plated similarly at 50,000 cells/well and stimulated by addition of 40 μg/ml PHA and 80 ng/ml interleukin-2 (IL-2). Cells were incubated for 72 h at 37°C, 5% CO2. ATP was quantified using the CellTiter-Glo Luminescent Cell Viability Assay (Promega, Madison, WI) on a ViewLux microplate imager (Perkin Elmer, Waltham, MA). Percent cytotoxicity was determined relative to vehicle-only treated wells.

[4] = Microsome assay, human liver microsomes; format: in vitro ADME
Experimental: (§1) Human and mouse liver microsomes were obtained from XenoTech, LLC (Kansas City, KS). The reaction mixture was composed of liver microsomes (0.5 mg/mL), 20 mM Tris-HCl pH 7.4, 2.5 mM MgCl2, and an NADPH generating system (0.1 mM NADP, 1.2 mM glucose-6-phosphate and 0.3 units/ml glucose-6-phophate dehydrogenase). […] Test compounds were added to the microsome reaction and loss of parent molecule was monitored after 1 h by LC/MS/MS.

[5] = Microsome assay, mouse liver microsomes; format: in vitro ADME
Experimental: as §1

[6] = system: HIV-1 Gag (p24) in ACH-2 cells; experiment: Intracellular staining for HIV Gag in ACH-2 cells (flow cytometry); format: cell-based; details: 16 h, 30 μM Cmpd 1 or Cmpd 2, 10 μM SAHA, 1 mM JQ1 or 10 ng/ml PMA, single experiment (Fig 4A)
Experimental: ACH-2 cells were treated as indicated and HIV-1 expression was monitored by intracellular staining for p24. Approximately, 1 × 10^6 cells were collected and washed in PBS before fixing by resuspending in 100 μl of BD Cytofix/Cytoperm (BD Biosciences, San Jose, CA) at 4°C for at least 20 min. Cells were then harvested by centrifugation and resuspended in 100 μl BD PermWash (50 mM NH4Cl, 5 mM EDTA, 0.1% saponin, 0.5% BSA, PBS and 1 mg/ml of anti-HIV-Gag PE (Clone KC57, Beckman Coulter, Brea CA). Cells were stained for 30 min, washed with the PermWash, and resuspended in FACS buffer (2 mM EDTA, 0.5% BSA, 1% paraformaldehyde in PBS). Cells were analyzed by flow cytometry using a FACSCalibur instrument (BD Biosciences). Flow cytometry was performed at the Boston University School of Medicine flow cytometry core.
Fig 4 Induction of HIV-1 expressing cells following treatment with latency reversing agents. ACH-2 cells were not treated or treated with a final concentration of 30 μM Cmpd 1 or Cmpd 2, 10 μM SAHA, 1 mM JQ1 or 10 ng/ml PMA for 16 h. Cells were stained using anti-HIV-Gag-PE and analyzed by flow cytometry. Numbers within the profiles represent the percentage of positive cells. These profiles are from a single experiment. B) Data from four independent experiments. Y-axis is mean of % p24 positive cells. * Cmpd 1 p-value […] compared to other treatments using a two-tailed t-test. TEXT PRINTED IN THE PICTURE: (A) Cmpd 1: Intracellular Gag: 65.6% | (A) Cmpd 2: Intracellular Gag: 33.9% | (A) SAHA: Intracellular Gag: 23.0% | (A) JQ1: Intracellular Gag: 16.7% | (A) PMA: Intracellular Gag: 94.2%

IL-2 secretion by PBMCs = experiment: IL-2 ELISA in PBMCs; format: cell-based, human; details: 24 h
Experimental: Cryopreserved PBMCs from a single donor were thawed in RPMI-1640 plus 10% FBS. PBMCs were plated at 5×10^4/well in 96-well plates and compound was added with a final concentration of 0.5% DMSO. Plates were incubated for 24 h at 37°C, 5% CO2. Interleukin-2 was quantified using Human IL-2 DuoSet ELISA (R&D Systems, Minneapolis, MN). Raw data were converted to ng/ml IL-2 using a standard curve obtained in parallel.

[7] = system: Kaposi's sarcoma associated herpesvirus (KSHV) in BCP-1 cells; experiment: KSHV activation assay in BCP-1 cells (ORF50 qRT-PCR); format: cell-based; details: 24 h, concentrations as low as 0.014 ng/ml
[8] = system: Epstein-Barr virus (EBV) in Raji cells; experiment: EBV activation assay in Raji cells (BZLF1 qRT-PCR); format: cell-based; details: Raji cells, 24 h, concentrations as low as 0.014 ng/ml
[9] = Protein binding, human plasma (ultrafiltration); format: in vitro ADME; details: human plasma, 10 μM, pH 7.4
[10] = system: NF-κB response element reporter in Jurkat cells; experiment: NF-κB-responsive Fluc reporter in Jurkat cells; format: cell-based, human; details: stably-transfected Jurkat cells, 4 h
Source text: The vector pGL4.32[luc2P/NF-κB-RE/Hygro] was purchased from Promega (Madison, WI), encoding 5 copies of a NF-κB response element driving expression of synthetic firefly luciferase gene, luc2, including a PEST destabilization sequence. Jurkat cells were transfected with this vector using a Gene Pulser® II (Biorad, Hercules, CA) with a 0.4 cm gap cuvette at 0.2 kV and 960 μF. Cells were allowed to recover for three days in RPMI-1640 with 10% FBS and 1% penicillin/streptomycin before selection with 200 μg/ml Hygromycin B for one month. Pooled, stably-transfected cells were plated at 50,000/well in 96-well plates and treated with test compounds in a final concentration of 0.5% DMSO for 4 h at 37°C. Luciferase activity was determined by adding one volume 2× steadylite plus reagent (Perkin Elmer, Waltham, MA) and reading on a ViewLux microplate imager.

HIV-1 LTR = experiment: HIV LTR-driven Rluc reporter in HeLa cells; format: cell-based; details: transfected HeLa cells, 24 h
Source text: The vector pGL4.77[hRlucP/Hygro] encoding a Renilla luciferase gene including a PEST destabilization sequence, was purchased from Promega (Madison, WI). HIV-1 cDNA was generated from HIVIIIB virus using PureLink® Viral RNA/DNA Mini Kit (Invitrogen). The HIV-1 core promoter region (nucleotides -105 to 60) was amplified from HIVIIIB cDNA using primers designed with NheI (forward: 5ʹ-GCTAGCGGGACTTTCCGCTGGG-3ʹ) and XhoI (reverse: 5ʹ-CTCGAGAGTGGGTTCCCTAGTTAGCCA-3ʹ) flanking restriction site sequences. DNA fragments were generated using Platinum® Taq DNA Polymerase High Fidelity (Invitrogen) and fragment size was verified by electrophoresis using E-Gel® 1.2% agarose (Invitrogen). Fragments were cloned into pCR™2.1 TOPO® (Invitrogen), transformed into One Shot® TOP10 Chemically Competent E. coli (Invitrogen), and selected on LB-agar plates containing 100 μg/ml ampicillin. Individual colonies were grown in LB broth, DNA was isolated using QIAprep® Spin Miniprep Kit (Qiagen), and the inserted fragment was verified by EcoRI digestion followed by electrophoresis using E-Gel® 1.2% agarose (Invitrogen). To insert the HIV-1 LTR into the vector multiple cloning region, the resultant plasmids and pGL4.77[hRlucP/Hygro] were dually digested with NheI and XhoI (New England Biolabs), ligated using ExpressLink™ T4 DNA Ligase (Invitrogen), transformed into One Shot® TOP10 Chemically Competent E. coli (Invitrogen), and selected on LB-agar plates containing 100 μg/ml ampicillin. Clones were picked and DNA isolated using QIAprep® Spin Miniprep Kit (Qiagen) and the inserted fragment was verified by NheI/XhoI digestion followed by electrophoresis using E-Gel® 1.2% agarose (Invitrogen). The resultant plasmid, pGL4.77-LTR, was verified by sequencing at GENEWIZ (South Plainfield, NJ). […] Luciferase activity was quantified using Renilla Luciferase Assay System (Promega, Madison, WI) and results were normalized to the vehicle-treated control.

CC(=O)CC(c1ccccc1)c1c(O)c2ccccc2oc1=O (racemic) [Warfarin, (RS)-warfarin, reference compound]
fraction unbound at 15 min, 10 μM ([1]; mouse, plasma): 0.047

Nc1ccc2[nH]c(-c3ccc(-c4nc5c(N)cccc5o4)cc3)nc2c1 [Compound 3]
Max. fold induction, 24STNLSG ([2]; SEAP reporter, 72 h): 3 fold
EC2X, 24STNLSG ([2]; 72 h): 3.7 µM
CC50 at 72 h [3]: 8.8 µM

Cn1c(-c2ccc(-c3nc4cc(N)ccc4o3)cc2)nc2cc(N)ccc21 [Compound 4]
EC2X, 24STNLSG ([2]; 72 h): >100 µM
Activity in 24STNLSG cells (in words) [2]: complete loss of activity
CC50 at 72 h [3]: > 100 µM

Nc1ccc2oc(-c3ccc(-c4nc5cc(N)ccc5o4)cc3)nc2c1 [Compound 5]
EC2X, 24STNLSG ([2]; 72 h): >100 µM
Activity in 24STNLSG cells (in words) [2]: inactive
CC50 at 72 h [3]: > 100 µM

Nc1ccc2[nH]c(-c3ccc(-c4nc5cc(N)ccc5[nH]4)cc3)nc2c1 [Compound 6]
EC2X, 24STNLSG ([2]; 72 h): >100 µM
Activity in 24STNLSG cells (in words) [2]: inactive
CC50 at 72 h [3]: > 100 µM

CC(C)N(CCC(C(N)=O)(c1ccccc1)c1ccccn1)C(C)C (stereo not shown) [Disopyramide, reference compound]
HLM stability (% loss of parent compound at 1 h) [4]: 9%
MLM stability (% loss of parent compound at 1 h) [5]: 12%

Cc1sc2c(c1C)C(c1ccc(Cl)cc1)=N[C@@H](CC(=O)OC(C)(C)C)c1nnc(C)n1-2 [JQ1, reference compound]
Intracellular Gag, percentage of positive cells [6]: 16.7%

CCCCCCCCCCCCCC(=O)O[C@@H]1[C@@H](C)[C@@]2(O)[C@@H](C=C(CO)C[C@]3(O)C(=O)C(C)=C[C@@H]23)[C@@H]2C(C)(C)[C@]12OC(C)=O [PMA, phorbol 12-myristate 13-acetate, reference compound]
Intracellular Gag, percentage of positive cells [6]: 94.2%
IL-2 secretion by PBMCs (in words) (IL-2 secretion by PBMCs): induced high levels of IL-2
Stimulation of ORF50 mRNA (KSHV) [7]: > 35 fold
Stimulation of BLZF1 mRNA (EBV) [8]: > 35 fold

CC(C)NCC(O)COc1cccc2ccccc12 (stereo not shown) [Propanolol, propranolol, reference compound]
% Plasma protein binding (human) [9]: 74.3%
% Plasma protein binding (mouse) ([1]; mouse plasma, 10 μM): 73.8%

O=C(CCCCCCC(=O)Nc1ccccc1)NO [SAHA, Suberanilohydroxamic acid, reference compound]
Intracellular Gag, percentage of positive cells [6]: 23.0%

TNF-α
Induction of NF-κB driven reporter (in words) [10]: strongly induced this reporter
Transcription driven by the HIV-1 LTR (in words) (HIV-1 LTR): significantly increased expression of this reporter
